According to patent publication US20220265671A1, “METHOD FOR TREATING STROKE BY USING TRICYCLIC DERIVATIVE” (Jeil Pharmaceutical Co., Ltd., priority 2019, published 2022):
Where “and” joins values, the source holds several entries; their conditions need not be identical. Identical values can stand only once.

Key:
[1] = test system: patients with acute ischemic stroke; test: Phase II clinical test: Korean version of modified Rankin Scale (K-mRS) at day 90; assay type: in vivo, human
Method: (§1) A multi-organ, randomly allocated, double-blind, placebo-controlled, and initial phase II clinical test was conducted on patients with acute ischemic stroke to explore and evaluate the efficacy and safety of the study drug, respectively. This clinical test includes a total of three cohorts, and test subject registration starts from Cohort 1, and when the safety is secured, Cohort 2 is sequentially registered. The registration of Cohort 2 proceeds when the safety is secured after evaluation by the Data Safety Monitoring Board (DSMB) at the time point when all the test subjects of Cohort 1 completed Visit 5 (Day 29). Cohorts 1 and 2 are for confirming the safety and efficacy of the test drug, and based on this, the dose and dosage regimen, and the like of Cohort 3 are determined.
(§2) This clinical test is conducted on patients with modified thrombolysis in cerebral infarction (mTICI) 2b or 3 grade reperfusion in angiography after endovascular recanalization therapy (ERT) among patients with severe ischemic stroke in moderate cases confirmed to have undergone acute cerebral artery occlusion of the anterior circulation system. Intravenous tissue plasminogen activator (IV tPA) intravenous administration is permitted when the stroke is indicated before ERT. Furthermore, when angiography is performed for ERT after intravenous tPA administration, patients who have already undergone mTICI 2b-3 reperfusion by a venous tPA effect alone before ERT also become a subject of the clinical test.
(§3) The following Cohorts 1 to 3 are administered using an infusion pump after mixing a test drug or control drug with an infusion solution.
(§4) Cohort 1. Low-Dose Administration Group • Test drug group: administration of the test drug is started within 30 minutes after reperfusion is confirmed within 6 hours after the onset of the symptom. Immediately after intravenous administration (bolus) of 150 mg of the test drug for 15 minutes, 750 mg of the test drug is intravenously IV infused for 23 hours and 45 minutes (f2 hours). Administration of the test drug should be started within 6.5 hours after the onset of the symptom. • Control drug group: a placebo is administered in the same manner as in the test drug group.
as §4, with “2. High-Dose” for “1. Low-Dose”, “300” for “150”, “30” for “15”, “1500” for “750”, “30” for “45”, “(±2” for “(f2”
The most widely used method for evaluating disability or dependence in daily life for people who have suffered from stroke or other neurological disorders is the Korean version of a modified Rankin Scale (K-mRS). The K-mRS is a global functional outcome scale which evaluates disability due to stroke and is the most universally used scale in stroke clinical tests. The K-mRS distribution shift analysis is a method of comparing the overall prognosis of the test group and the control group, and is the most recommended analysis method in clinical tests for acute stroke treatment methods including neuroprotective agents. The K-mRS is a scale of evaluating the patient's global functionality according to the independence of daily life and the degree to which the patient needs others' help, and is divided into 0 to 6 phases (0: normal, 5: severe disability, and 6: death). At the time points of days 29 and 90, a proportion of the K-mRS score evaluated by the evaluator is presented, and the pre-mRS evaluated at the time of screening is used as basic disease information. […]

healthy male volunteers [2] = test: Phase 1 clinical test, single dose escalation: adverse reactions; assay type: in vivo, human
Method: (§5) In order to evaluate the safety at the time of a single dose of a test drug, a phased clinical test was conducted as determined by the Data Safety Monitoring Board (DSMB) on 40 subjects (8 subjects per cohort: 6 subjects in test group and 2 subjects in placebo group) in 5 dose groups (35 mg, 75 mg, 150 mg, 300 mg, 600 mg) selected from healthy male volunteers in Korea.
A test drug or placebo was mixed with an infusion solution by intravenous injection therapy, and then administered using an infusion pump for 30 minutes (±5 minutes).
Of the 40 test subjects who were administered the clinical test drug, a total of 6 test subjects developed 7 adverse reactions. There were no reported adverse reactions in the placebo-administered group. Of the 7 adverse reactions, 1 case of “dizziness” was a moderate symptom in the test subjects who were administered 600 mg, and all other adverse reactions corresponded to a mild symptom. The subjects were spontaneously recovered from all the adverse reactions without any sequelae. […] Accordingly, it was determined that the drug tolerability of a single dose of the test drug was good in the test dose range.

healthy male volunteers [3] = test: Phase 1 clinical test, multi dose escalation: adverse reactions; assay type: in vivo, human
Method: as §5, with “a repeated” for “a single”, “on 24” for “on 40”, “in 3” for “in 5”, “groups (repeated administration of” for “groups (35 mg, 75 mg,”, “mg, and 450 mg seven times at intervals of 12 hours)” for “mg, 600 mg)”
A test drug or placebo was mixed with an infusion solution by intravenous injection therapy, and then administered using an infusion pump for 60 minutes (±10 minutes), and the same was repeatedly administered seven times at intervals of 12 hours.
Of the 24 test subjects who were administered the clinical test drug, a total of 7 test subjects developed 12 adverse reactions, and among them, 10 cases were confirmed to be adverse drug reactions. One case (one person) of an adverse reaction occurred in the placebo-administered group. […] Accordingly, it was determined that the tolerability of about 150 to 450 mg of the test drug during the repeated administration at intervals of 12 hours was good.

[4] = Population pharmacokinetics model (NONMEM) built on single dose phase 1 data; set-up: species or system human
Method: A pharmacokinetics model for administration of a test drug was established for integration with a quantitative pharmacokinetics model for simulating the efficacy and safety of test drugs, as well as simulating the pharmacokinetics of future doses and dosage regimens. The simulation was performed by constructing a pharmacokinetics model based on pharmacokinetics information and demographic information of a total of 30 test subjects who were administered 35 mg, 75 mg, 150 mg, 300 mg, and 600 mg among the test subjects who participated in the single dose clinical test of test drug phase 1. The analysis was performed by a non-linear mixed effect modeling method using NONMEM® (version 7.2; ICON Development Solutions, Ellicott City, Md., USA).
The population pharmacokinetics model was constructed in the order of structural model construction, covariate analysis, and model selection. As a first step, a basic structural model was constructed, and as a step of establishing a model capable of best explaining the change in drug concentration over time, the most pharmacologically and statistically suitable model was selected by performing a search in the order of a 1-compartment model, a 2-compartment model, and a 3-compartment model. As the next step, covariate analysis was performed, and the effects of age, height, body weight, serum creatine, BUN, albumin, AST, and ALT concentrations which are part of the demographic information on pharmacokinetics were quantitatively evaluated. Finally, model selection (internal validation) was performed, a simulation of the established model was performed, and this was evaluated by a visual predictive check (VPC), which is a schematic evaluation method.
The pattern of time-blood concentration changes of the test drug is best explained by a 3-compartment model with 1st order elimination. No significant covariate was found in the covariate analysis utilizing age, height, body weight, serum creatine, BUN, albumin, AST, and ALT concentrations.

[5] = test system: patients with acute ischemic stroke; test: Phase II clinical test: change ratio of cerebral infarction lesion (MRI, day 4 vs baseline); assay type: in vivo, human
Method: as §1, §2, §3, §4
Diffusion weighted imaging (DWI) and gradient-recalled echo (GRE) or susceptibility weighted imaging (SWI), and magnetic resonance imaging (MRI) examination are performed within 90 minutes after reperfusion while administering a medicine for a clinical test, and this is utilized as a baseline result. A change ratio of cerebral infarction lesion at a time point of day 4 compared to the baseline was measured.
For comparison between a test group and the placebo, a two sample t-test is used after log conversion of an evaluation variable (infarct growth ratio). Additionally, a comparison between the test group and the placebo is made using a Wilcoxon rank sum test for a source data log which is not log-converted.
When factors that may affect prognosis should be corrected, analysis of covariance (ANCOVA) is used after log conversion of the evaluation variables (infarct growth ratio).
In patients who were administered a control drug or a test drug, the change ratio of cerebral infarction lesions among patients with similar baselines of cerebral infarction lesions was confirmed (Table 3).

tMCAO animal model = conditions: Molecular Neurobiology 55(9859), January 2018; cited from earlier work
[6] = Cohort 1 (150 mg bolus + 750 mg infusion), n = 9
[7] = Cohort 2 (300 mg bolus + 1500 mg infusion), n = 6
[8] = repeated dose 150-450 mg, seven times at 12 h intervals
[9] = 3-compartment model, structural model
[10] = interindividual variability, predicted value
[11] = Cohort 1, day 4 compared to baseline, individual patients 2, 4, 6, 8, dihydrochloride

## CCOc1cc(CN2CCOCC2)cc2[nH]c(=O)c3c(c12)NCCC3.Cl.Cl [Test drug, 10-ethoxy-8-(morpholinomethyl)-1,2,3,4-tetrahydrobenzo[h][1,6]naphthyridin-5(6H)-one dihydrochloride]
[1]; 900 mg of the test drug, day 90
  results of the K-mRS compared to control drug group: far superior
[1]; [6]
  K-mRS classification at the time point of day 90: K-mRS 0~2: 7(77.78) n(%)
  K-mRS classification at the time point of day 90: K-mRS 3~4: 2(22.22) n(%)
  K-mRS classification at the time point of day 90: K-mRS 5~6: 0 n(%)
[1]; Cohort 1 (900 mg), N = 9
  K-mRS (continuous variable) at the time point of day 90, 1st Quartile: 0.00
  K-mRS (continuous variable) at the time point of day 90, 3rd Quartile: 2.00
  K-mRS (continuous variable) at the time point of day 90, Max: 4.00
  K-mRS (continuous variable) at the time point of day 90, Mean(SD): 1.44(1.42)
  K-mRS (continuous variable) at the time point of day 90, Median: 1.00
  K-mRS (continuous variable) at the time point of day 90, Min: 0.00
[1]; Cohort 1, N = 9
  K-mRS classification at the time point of day 90: K-mRS 0: 3(33.33) n(%)
  K-mRS classification at the time point of day 90: K-mRS 1: 2(22.22) n(%)
  K-mRS classification at the time point of day 90: K-mRS 2: 2(22.22) n(%)
  K-mRS classification at the time point of day 90: K-mRS 3: 1(11.11) n(%)
  K-mRS classification at the time point of day 90: K-mRS 4: 1(11.11) n(%)
  K-mRS classification at the time point of day 90: K-mRS 5: 0 n(%)
  K-mRS classification at the time point of day 90: K-mRS 6: 0 n(%)
[1]; [7]
  K-mRS classification at the time point of day 90: K-mRS 0~2: 1(20.00) n(%)
  K-mRS classification at the time point of day 90: K-mRS 3~4: 3(60.00) n(%)
  K-mRS classification at the time point of day 90: K-mRS 5~6: 1(20.00) n(%)
Healthy male volunteers [2]; single IV dose 35-600 mg over 30 minutes, 40 test subjects
  number of adverse reactions: 7
Healthy male volunteers [2]; single IV dose 35-600 mg over 30 minutes, of the 40 test subjects, no adverse reactions in placebo group
  test subjects who developed adverse reactions: 6
Healthy male volunteers [2]; single dose 600 mg, all other adverse reactions mild
  moderate adverse reactions (dizziness), cases: 1
Healthy male volunteers [2]; single dose 35-600 mg, entire clinical test
  significant adverse reactions: No significant adverse reactions occurred
Healthy male volunteers [2]; test dose range 35-600 mg IV
  drug tolerability of a single dose: good
Healthy male volunteers [3]; 150, 300, 450 mg IV over 60 minutes, seven times at intervals of 12 hours, of the 24 test subjects, includes one person in placebo group
  test subjects who developed adverse reactions: 7
Healthy male volunteers [3]; about 150 to 450 mg at intervals of 12 hours
  tolerability during repeated administration: good
Healthy male volunteers [3]; repeated dose 150-450 mg, entire clinical test
  significant adverse reactions: no significant adverse reactions occurred
Healthy male volunteers [3]; [8]
  adverse reactions confirmed to be adverse drug reactions, cases: 10
  severity of adverse reactions: mild
Healthy male volunteers [3]; repeated dose 150-450 mg, seven times at 12 h intervals, 24 test subjects, one case in placebo group
  number of adverse reactions: 12
[4]; [9]
  1st Clearance of peripheral compartment (Q1), predicted value: 162 L/h
  1st Volume of peripheral compartment (V2), predicted value: 58.5 L
  2nd Clearance of peripheral compartment (Q2), predicted value: 2.66 L/h
  2nd Volume of peripheral compartment (V3), predicted value: 8.81 L
  Volume of central compartment (V1), predicted value: 15.2 L
[4]; 3-compartment model, structural model, 30 subjects, 35-600 mg IV
  Clearance of central compartment (CL), predicted value: 32.0 L/h
[4]; [10]
  Interindividual model CL: 43.8%
  Interindividual model Q1: 41.7%
  Interindividual model Q2: 28.1%
  Interindividual model V1: 52.4%
  Interindividual model V2: 20.2%
  Interindividual model V3: 64.1%
[5]; Cohort 1 (150 mg bolus + 750 mg infusion), individual patients 2, 4, 6, 8, MRI within 90 minutes after reperfusion, dihydrochloride
  Cerebral infarction lesion, Baseline: 1.59 cc and 10.1 cc and 32 cc and 126.66 cc
[5]; Cohort 1 (150 mg bolus + 750 mg infusion), individual patients 2, 4, 6, 8, dihydrochloride
  Cerebral infarction lesion, Time point of day 4: 2.67 cc and 10.94 cc and 45.33 cc and 127.61 cc
[5]; [11]
  Change ratio of cerebral infarction lesion: 1.68 and 1.08 and 1.42 and 1.01
  Rate of increase in cerebral infarction lesion: 67.9% and 8.3% and 41.7% and 0.8%
[5]; patients with similar baselines, Table 3
  rate of increase in cerebral infarction lesions compared to control drug group: significantly low rate of increase in cerebral infarction lesions

## CCOc1cc(CN2CCOCC2)cc2[nH]c(=O)c3c(c12)NCCC3 [10-ethoxy-8-(morpholinomethyl)-1,2,3,4-tetrahydrobenzo[h][1,6]naphthyridin-5(6H)-one]
tMCAO animal model
  reducing cerebral infarction volume: effective in reducing cerebral infarction volume
